Experimental data as given in PubChem BioAssay (NCI).
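In this assay, cells in 96-well plates receive the compound at five concentrations for 48 hours. Endpoints are linearly interpolated between the surrounding concentrations. At the GI50, growth is halved. The concentration for full growth arrest is given as TGI.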

What was measured:
Assay in all cases: NCI tumour cell line growth inhibition, 48 h
786-0 renal = system: 786-0 renal
A498 renal = system: A498 renal
A549 NSCLC = system: A549 NSCLC
ACHN renal = system: ACHN renal
BT-549 breast = system: BT-549 breast
CAKI-1 renal = system: CAKI-1 renal
CCRF-CEM leukemia = system: CCRF-CEM leukemia
COLO 205 colon = system: COLO 205 colon
DU-145 prostate = system: DU-145 prostate
EKVX NSCLC = system: EKVX NSCLC
HCC-2998 colon = system: HCC-2998 colon
HCT-116 colon = system: HCT-116 colon
HCT-15 colon = system: HCT-15 colon
HL-60(TB) leukemia = system: HL-60(TB) leukemia
HOP-62 NSCLC = system: HOP-62 NSCLC
HOP-92 NSCLC = system: HOP-92 NSCLC
HS 578T breast = system: HS 578T breast
HT29 colon = system: HT29 colon
IGROV1 ovarian = system: IGROV1 ovarian
K-562 leukemia = system: K-562 leukemia
KM12 colon = system: KM12 colon
LOX IMVI melanoma = system: LOX IMVI melanoma
M14 melanoma = system: M14 melanoma
MALME-3M melanoma = system: MALME-3M melanoma
MCF7 breast = system: MCF7 breast
MDA-MB-231 breast = system: MDA-MB-231 breast
MDA-MB-435 = system: MDA-MB-435
MOLT-4 leukemia = system: MOLT-4 leukemia
NCI-H226 lung = system: NCI-H226 lung
NCI-H23 lung = system: NCI-H23 lung
NCI-H460 lung = system: NCI-H460 lung
NCI-H522 lung = system: NCI-H522 lung
NCI/ADR-RES ovarian = system: NCI/ADR-RES ovarian
OVCAR-3 ovarian = system: OVCAR-3 ovarian
OVCAR-4 ovarian = system: OVCAR-4 ovarian
OVCAR-5 ovarian = system: OVCAR-5 ovarian
OVCAR-8 ovarian = system: OVCAR-8 ovarian
PC-3 prostate = system: PC-3 prostate
RPMI-8226 leukemia = system: RPMI-8226 leukemia
RXF 393 renal = system: RXF 393 renal
SF-268 CNS = system: SF-268 CNS
SF-295 CNS = system: SF-295 CNS
SF-539 CNS = system: SF-539 CNS
SK-MEL-2 melanoma = system: SK-MEL-2 melanoma
SK-MEL-28 melanoma = system: SK-MEL-28 melanoma
SK-MEL-5 melanoma = system: SK-MEL-5 melanoma
SK-OV-3 ovarian = system: SK-OV-3 ovarian
SN12C renal = system: SN12C renal
SNB-19 CNS = system: SNB-19 CNS
SNB-75 CNS = system: SNB-75 CNS
SR leukemia = system: SR leukemia
SW-620 colon = system: SW-620 colon
T-47D breast = system: T-47D breast
TK-10 renal = system: TK-10 renal
U251 CNS = system: U251 CNS
UACC-257 melanoma = system: UACC-257 melanoma
UACC-62 melanoma = system: UACC-62 melanoma
UO-31 renal = system: UO-31 renal

CC(C)=CC(=O)OCC(=O)O[C@@H]1C[C@]2(C(C)C)O[C@@]1(C)[C@@H]1CC[C@@H](C)[C@H]1[C@@H]2OC(=O)/C=C/c1ccccc1
GI50 (786-0 renal): 7.21 µM
TGI (786-0 renal): > 100 µM
GI50 (A498 renal): 0.179 µM
TGI (A498 renal): 0.679 µM
GI50 (A549 NSCLC): > 57.2 µM
TGI (A549 NSCLC): > 100 µM
GI50 (ACHN renal): 0.3 µM
TGI (ACHN renal): > 19.6 µM
GI50 (BT-549 breast): 2.11 µM
TGI (BT-549 breast): > 73.2 µM
GI50 (CAKI-1 renal): 0.346 µM
GI50 (CCRF-CEM leukemia): 29.6 µM
TGI (CCRF-CEM leukemia): > 100 µM
GI50 (COLO 205 colon): > 48.5 µM
TGI (COLO 205 colon): > 65.3 µM
GI50 (DU-145 prostate): > 69.2 µM
TGI (DU-145 prostate): > 100 µM
GI50 (EKVX NSCLC): > 51 µM
TGI (EKVX NSCLC): > 100 µM
GI50 (HCC-2998 colon): > 57.2 µM
TGI (HCC-2998 colon): > 100 µM
GI50 (HCT-116 colon): 11 µM
TGI (HCT-116 colon): > 100 µM
GI50 (HCT-15 colon): 42.1 µM
TGI (HCT-15 colon): > 100 µM
GI50 (HL-60(TB) leukemia): 11.6 µM
TGI (HL-60(TB) leukemia): > 69.4 µM
GI50 (HOP-62 NSCLC): > 62.3 µM
TGI (HOP-62 NSCLC): > 100 µM
GI50 (HOP-92 NSCLC): 5.18 µM
TGI (HOP-92 NSCLC): > 75.4 µM
GI50 (HS 578T breast): 0.064 µM
TGI (HS 578T breast): 0.548 µM
GI50 (HT29 colon): > 56.4 µM
TGI (HT29 colon): > 100 µM
GI50 (IGROV1 ovarian): > 61.8 µM
TGI (IGROV1 ovarian): > 100 µM
GI50 (K-562 leukemia): 7.75 µM
TGI (K-562 leukemia): > 100 µM
GI50 (KM12 colon): > 56 µM
TGI (KM12 colon): > 100 µM
GI50 (LOX IMVI melanoma): 33.4 µM
TGI (LOX IMVI melanoma): > 70.5 µM
GI50 (M14 melanoma): > 57.8 µM
TGI (M14 melanoma): > 100 µM
GI50 (MALME-3M melanoma): > 55.5 µM
TGI (MALME-3M melanoma): > 100 µM
GI50 (MCF7 breast): 35.3 µM
TGI (MCF7 breast): > 100 µM
GI50 (MDA-MB-231 breast): > 51.7 µM
TGI (MDA-MB-231 breast): > 85.2 µM
GI50 (MDA-MB-435): > 67.9 µM
TGI (MDA-MB-435): > 100 µM
GI50 (MOLT-4 leukemia): 43.4 µM
TGI (MOLT-4 leukemia): > 100 µM
GI50 (NCI-H226 lung): 9.47 µM
TGI (NCI-H226 lung): > 94.1 µM
GI50 (NCI-H23 lung): > 50.4 µM
TGI (NCI-H23 lung): > 96.4 µM
GI50 (NCI-H460 lung): > 63 µM
TGI (NCI-H460 lung): > 100 µM
GI50 (NCI-H522 lung): > 62.1 µM
TGI (NCI-H522 lung): > 100 µM
GI50 (NCI/ADR-RES ovarian): 2.25 µM
TGI (NCI/ADR-RES ovarian): > 85.5 µM
GI50 (OVCAR-3 ovarian): > 42.3 µM
TGI (OVCAR-3 ovarian): > 100 µM
GI50 (OVCAR-4 ovarian): 30.2 µM
TGI (OVCAR-4 ovarian): > 100 µM
GI50 (OVCAR-5 ovarian): > 62.7 µM
TGI (OVCAR-5 ovarian): > 100 µM
GI50 (OVCAR-8 ovarian): 0.912 µM
TGI (OVCAR-8 ovarian): > 72.9 µM
GI50 (PC-3 prostate): 6.01 µM
TGI (PC-3 prostate): > 100 µM
GI50 (RPMI-8226 leukemia): 7.89 µM
TGI (RPMI-8226 leukemia): > 100 µM
GI50 (RXF 393 renal): 0.382 µM
TGI (RXF 393 renal): 11.7 µM
GI50 (SF-268 CNS): > 38.1 µM
TGI (SF-268 CNS): > 100 µM
GI50 (SF-295 CNS): > 48.3 µM
TGI (SF-295 CNS): > 100 µM
GI50 (SF-539 CNS): > 72.7 µM
TGI (SF-539 CNS): > 100 µM
GI50 (SK-MEL-2 melanoma): > 56.4 µM
TGI (SK-MEL-2 melanoma): > 85.9 µM
GI50 (SK-MEL-28 melanoma): > 63.3 µM
TGI (SK-MEL-28 melanoma): > 100 µM
GI50 (SK-MEL-5 melanoma): 49.2 µM
TGI (SK-MEL-5 melanoma): > 66.1 µM
GI50 (SK-OV-3 ovarian): > 55.7 µM
TGI (SK-OV-3 ovarian): > 100 µM
GI50 (SN12C renal): 5.9 µM
TGI (SN12C renal): > 93.2 µM
GI50 (SNB-19 CNS): > 58.5 µM
TGI (SNB-19 CNS): > 100 µM
GI50 (SNB-75 CNS): 34.2 µM
TGI (SNB-75 CNS): > 87.5 µM
GI50 (SR leukemia): 11.1 µM
TGI (SR leukemia): > 100 µM
GI50 (SW-620 colon): > 60.4 µM
TGI (SW-620 colon): > 100 µM
GI50 (T-47D breast): 18.9 µM
TGI (T-47D breast): > 100 µM
GI50 (TK-10 renal): > 70.4 µM
TGI (TK-10 renal): > 100 µM
GI50 (U251 CNS): > 56.4 µM
TGI (U251 CNS): > 100 µM
GI50 (UACC-257 melanoma): > 47.5 µM
TGI (UACC-257 melanoma): > 94.3 µM
GI50 (UACC-62 melanoma): 24.4 µM
TGI (UACC-62 melanoma): > 100 µM
GI50 (UO-31 renal): 0.239 µM
TGI (UO-31 renal): 2.36 µM
